Assay: DPPH radical scavenging antioxidant test
Type: biochemical
Details: for Inhibition (radical scavenging inhibition): 0.2 mL DPPH (0.75 mM), compound 3 μM in ethanol, 30 minutes in the dark, 517 nm
Method: The antioxidant properties of the 8-((4-hydroxynaphthalen-1-yl)diazenyl)naphthalene-1,3-disulfonic acid compound were studied by adding 0.2 mL DPPH (0.75 mM)) to 8-((4-hydroxynaphthalen-1-yl)diazenyl)naphthalene-1,3-disulfonic acid (III) (3 μM) in ethanol. After 30 minutes of incubation in the dark, the absorbance was read against a blank at 517 nm. Ascorbic acid (vitamin C) was used as standard antioxidants (positive control). A blank sample was prepared by 0.2 ml of DPPH in 3 mL ethanol. A negative control sample was run using ethanol instead of the sample. The radical scavenging inhibition was calculated using the following equation: […]

Compound | Inhibition (radical scavenging inhibition) | antioxidant potential (vanishing DPPH radical colors at 517 nm) (DPPH in vitro test, vitamin C as positive control)
O=S(=O)(O)c1cc(S(=O)(=O)O)c2c(/N=N/c3ccc(O)c4ccccc34)cccc2c1 [Product III, 8-((4-hydroxynaphthalen-1-yl)diazenyl)naphthalene-1,3-disulfonic acid] | 52% | high potential as an antioxidant compared to vitamin C
O=C1O[C@H]([C@@H](O)CO)C(O)=C1O [vit c, Ascorbic acid, reference compound] | 74% | 

Source: US11970437B1, “8-((4-hydroxynaphthalen-1-yl)diazenyl)naphthalene-1,3-disulfonic acid as an antioxidant compound” (KING FAISAL UNIVERSITY, priority 2023, dated 2024)
